In patent US20090203694A1, “INHIBITORS OF UNDECAPRENYL PYROPHOSPHATE SYNTHASE” (priority 2006, published 2009):

These compounds were tested against T1, Streptococcus pneumonia UPPS (Streptococcus pneumoniae serotype 4, UniProt Q97SR4) (assay: Determination of binding to UPPS (inorganic phosphate release, Biomol Green)). Conditions: FPP 3 μM, IPP 16 μM; 20 minutes preincubation with compound.
T1 construct: His-tag (N)
T1 sequence (Q97SR4 1-252): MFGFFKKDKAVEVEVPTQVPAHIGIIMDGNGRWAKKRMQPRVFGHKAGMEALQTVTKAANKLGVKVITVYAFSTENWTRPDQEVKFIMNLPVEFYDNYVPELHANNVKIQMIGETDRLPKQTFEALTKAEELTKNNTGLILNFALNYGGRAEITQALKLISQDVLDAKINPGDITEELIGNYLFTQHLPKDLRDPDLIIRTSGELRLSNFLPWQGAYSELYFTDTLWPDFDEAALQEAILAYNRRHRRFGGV
Type: biochemical
Method: The ability of several of the compounds described herein to bind to UPPS was also tested as follows.
Streptococcus pneumonia UPPS was cloned into pET-15b, expressed and purified as an N-terminal His-tag fusion using affinity chromatography. The working stock of UPPS was prepared by mixing the purified enzyme with liposome made from E. coli total lipids extract (Avanti Polar Lipis, Inc., Alabaster, Ala.). The substrates FPP and IPP and inorganic pyrophosphatase were purchased from Sigma. Biomol Green reagent was from Biomol International (Plymouth Meeting, Pa.). All other chemicals were from Sigma at the highest grade.
For testing a compound, UPPS was first incubated with the compound at desired concentrations for 20 minutes in the UPPS reaction buffer that contained 100 mM Tris-HCl, pH 7.3, 50 mM KCl, 1 mM MgCl2, 0.01% Triton X-100, and 20 μg/mL BSA. The reaction was then initiated by the addition of a mixture of FPP, IPP, and E. coli […] made in the same UPPS reaction buffer. The final concentrations for FPP and IPP were 3 μM and 16 μM, respectively. The inorganic phosphate generated in the reactions was then quantified with Biomol Green reagent, which was then used to determine the rate of the reaction and the inhibitory activity of the compound.
For example, the results of the binding assay for several compounds are shown the table below: […]
In the case of `O=C(Nc1ccc(N2CCCCC2)cc1)C1=C(O)CC(c2ccccc2)NC1=O` (centres unmarked) [compound 168], the IC50 is reported as 0.01 to 10 µM.
For `O=C(Nc1ccc(N2CCCCC2)cc1)C1=C(O)CC(Cc2ccccc2)NC1=O` (centres unmarked) [compound 174], the IC50 was 0.01 to 10 µM.
For `CC(C)CC1NC(=O)C(C(=O)NCc2ccc(-c3cccs3)cc2)=C1O` (centres unmarked) [compound 36], the IC50 was 0.01 to 10 µM.
Work on `O=C(Nc1ccc(Nc2ccccc2)cc1)C1=C(O)C(CC2CCCCC2)NC1=O` (centres unmarked) [compound 103] yielded an IC50 of 0.01 to 10 µM.
In the case of `CC(C)CC1CC(O)=C(C(=O)Nc2ccc(S(=O)(=O)c3ccccc3)cc2)C(=O)N1` (centres unmarked) [compound 202], the IC50 is reported as 10 to 50 µM.
With `CC(C)CC1NC(=O)C(C(=O)Nc2ccc(-c3ccccc3)cc2)=C1O` (centres unmarked) [compound 81] the IC50 was 0.01 to 10 µM.
`O=C(Nc1ccc(Oc2ncc(C(F)(F)F)cc2Cl)cc1)C1=C(O)C(Cc2ccccc2)NC1=O` (centres unmarked) [compound 9] gave an IC50 of 0.01 to 10 µM.
Compound `CC(C)CC1CC(O)=C(C(=O)Nc2ccc(OC(F)(F)F)cc2)C(=O)N1` (centres unmarked) [compound 183] has an IC50 of 0.01 to 10 µM.
Compound `O=C(Nc1ccc(-n2cccn2)cc1)C1=C(O)CC(c2ccccc2)NC1=O` (centres unmarked) [compound 181] has an IC50 of 0.01 to 10 µM.
`COc1ccc(-c2nc(NC(=O)C3=C(O)CC(Cc4ccccc4)NC3=O)nn2-c2ccc(CO)cc2)cc1` (centres unmarked) [compound 177] was tested, and the IC50 was 0.01 to 10 µM.
Work on `CC(C)CC1NC(=O)C(C(=O)Nc2ccc(Oc3ccccc3)cc2)=C1O` (centres unmarked) [compound 123] yielded an IC50 of 0.01 to 10 µM.
Work on `COc1ccc(NC(=O)C2=C(O)CC(c3ccccc3)NC2=O)cc1` (centres unmarked) [compound 170] yielded an IC50 of 0.01 to 10 µM.
Work on `CCCCCCOc1ccc(NC(=O)C2=C(O)C(CCc3ccccc3)NC2=O)cc1` (centres unmarked) [compound 77] yielded an IC50 of 0.01 to 10 µM.
For `O=C(Nc1ccc(-c2ccccc2)cc1)C1=C(O)C(Cc2c[nH]cn2)NC1=O` (centres unmarked) [compound 113], the IC50 was 0.01 to 10 µM.
For `O=C(Nc1ccc(C2CCCCC2)cc1)C1=C(O)C(c2ccccc2)NC1=O` (centres unmarked) [compound 11], the IC50 was 0.01 to 10 µM.
`O=C(Nc1ccc(C(F)(F)F)cc1)C1=C(O)CC(c2ccccc2)NC1=O` (centres unmarked) [compound 167] was tested, and the IC50 was 0.01 to 10 µM.
Compound `CC(C)CC1NC(=O)C(C(=O)Nc2cccc(Oc3ccccc3)c2)=C1O` (centres unmarked) [compound 70] has an IC50 of 0.01 to 10 µM.
In the case of `O=C(Nc1ccc(N2CCCCC2)cc1)C1=C(O)C(CCc2ccccc2)NC1=O` (centres unmarked) [compound 143], the IC50 is reported as 0.01 to 10 µM.
In the case of `O=C(Nc1ccc(-c2ccccc2)cc1)C1=C(O)CC(c2ccccc2)NC1=O` (centres unmarked) [compound 169], the IC50 is reported as 0.01 to 10 µM.
With `O=C(Nc1ccc(C2CCCCC2)cc1)C1=C(O)CC(C2CCCCC2)NC1=O` (centres unmarked) [compound 185] the IC50 was 0.01 to 10 µM.
In the case of `O=C(Nc1ccc(S(=O)(=O)c2ccccc2)cc1)C1=C(O)CC(C2CCCCC2)NC1=O` (centres unmarked) [compound 206], the IC50 is reported as 0.01 to 10 µM.
`CC(C)CC1NC(=O)C(C(=O)Nc2ccc(Oc3nc4ccccc4s3)cc2)=C1O` (centres unmarked) [compound 126] showed an IC50 of 0.01 to 10 µM.
In the case of `Cc1ccc2nc(-c3ccc(NC(=O)C4=C(O)C(c5ccccc5)NC4=O)cc3)sc2c1` (centres unmarked) [compound 6], the IC50 is reported as 0.01 to 10 µM.
Work on `O=C(Nc1ccc(-c2ccccc2)cc1)C1=C(O)CC(Cc2ccccc2)NC1=O` (centres unmarked) [compound 187] yielded an IC50 of 0.01 to 10 µM.
`O=C(Nc1ccc(C2CCCCC2)cc1)C1=C(O)C(Cc2ccccc2)NC1=O` (centres unmarked) [compound 5] showed an IC50 of 0.01 to 10 µM.
For `CC1CC(O)=C(C(=O)Nc2ccc(Oc3ccccc3)cc2)C(=O)N1` (centres unmarked) [compound 223], the IC50 was greater than 50 µM.
With `O=C1NCC(CC2CCCCC2)C(O)=C1C(=O)Nc1ccc(-n2ccnc2)cc1` (centres unmarked) [compound 221] the IC50 was 0.01 to 10 µM.
For `O=C(Nc1ccc(C2CCCCC2)cc1)C1=C(O)C(c2ccccc2)NC1=O` (centres unmarked) [compound 56], the IC50 was 0.01 to 10 µM.
In the case of `O=C(Nc1ccc(-n2cccn2)cc1)C1=C(O)CC(C2CCCCC2)NC1=O` (centres unmarked) [compound 198], the IC50 is reported as 0.01 to 10 µM.
`O=C(Nc1ccc(-c2ccccc2)cc1)C1=C(O)C(c2ccccc2)NC1=O` (centres unmarked) [compound 14] was tested, and the IC50 was 0.01 to 10 µM.
`CC(C)CC1CC(O)=C(C(=O)Nc2ccc(-n3cccn3)cc2)C(=O)N1` (centres unmarked) [compound 192] was tested, and the IC50 was 0.01 to 10 µM.
`O=C(Nc1ccc(N2CCCCC2)cc1)C1=C(O)C(c2ccccc2)NC1=O` (centres unmarked) [compound 7] gave an IC50 of 0.01 to 10 µM.
Compound `Cc1ccc2nc(-c3ccc(NC(=O)C4=C(O)C(Cc5ccccc5)NC4=O)cc3)sc2c1` (centres unmarked) [compound 4] has an IC50 of 10 to 50 µM.
`O=C(Nc1ccc(N2CCOCC2)cc1)C1=C(O)C(c2ccccc2)NC1=O` (centres unmarked) [compound 13] was tested, and the IC50 was 10 to 50 µM.
In the case of `CC(C)CC1NC(=O)C(C(=O)Nc2ccc(Nc3ccccc3)cc2)=C1O` (centres unmarked) [compound 104], the IC50 is reported as 0.01 to 10 µM.
For `O=C(NCCSCc1c(Cl)cccc1Cl)C1=C(O)C(Cc2ccccc2)NC1=O` (centres unmarked) [compound 54], the IC50 was 10 to 50 µM.
With `O=C(Nc1cccc(Oc2ccccc2)c1)C1=C(O)C(CCc2ccccc2)NC1=O` (centres unmarked) [compound 80] the IC50 was 0.01 to 10 µM.
For `N#Cc1ccccc1Oc1cccc(NC(=O)C2=C(O)C(c3ccccc3)NC2=O)c1` (centres unmarked) [compound 8], the IC50 was 0.01 to 10 µM.
`O=C(Nc1ccc(C2CCCCC2)cc1)C1=C(O)CC(c2ccccc2)NC1=O` (centres unmarked) [compound 164] showed an IC50 of 0.01 to 10 µM.
`O=C(Nc1ccc(N2CCCCC2)cc1)C1=C(O)C(CCc2ccccc2)NC1=O` (centres unmarked) [compound 97] gave an IC50 of 0.01 to 10 µM.
Compound `CC(C)CC1CC(O)=C(C(=O)Nc2ccc(C3CCCCC3)cc2)C(=O)N1` (centres unmarked) [compound 182] has an IC50 of 0.01 to 10 µM.
`O=C(Nc1ccc(C2CCCCC2)cc1)C1=C(O)C(c2ccccc2)NC1=O` (centres unmarked) [compound 116] gave an IC50 of 0.01 to 10 µM.
For `O=C(Nc1cccc(Oc2ccccc2)c1)C1=C(O)C(CC2CCCCC2)NC1=O` (centres unmarked) [compound 49], the IC50 was 0.01 to 10 µM.
`CCCCCCOc1ccc(NC(=O)C2=C(O)C(CC(C)C)NC2=O)cc1` (centres unmarked) [compound 52] showed an IC50 of 0.01 to 10 µM.
`CCC1C(O)=C(C(=O)Nc2ccc(C3CCCCC3)cc2)C(=O)N1C` (centres unmarked) [compound 15] gave an IC50 of 10 to 50 µM.
`O=C(Nc1ccc(C2CCCCC2)cc1)C1=C(O)CN(Cc2ccccc2)C1=O` [compound 19] showed an IC50 of 0.01 to 10 µM.
Compound `O=C(Nc1ccc(OC2CCCCC2)cc1)C1=C(O)CC(c2ccccc2)NC1=O` (centres unmarked) [compound 166] has an IC50 of 0.01 to 10 µM.
With `O=C(Nc1ccc(CO)cc1)C1=C(O)C(Cc2ccccc2)NC1=O` (centres unmarked) [compound 22] the IC50 was greater than 50 µM.
In the case of `CCN1CCN(c2ccc(NC(=O)C3=C(O)C(CC(C)C)NC3=O)cc2)CC1` (centres unmarked) [compound 148], the IC50 is reported as 0.01 to 10 µM.
For `O=C(Nc1ccc(Oc2ccccc2)cc1)C1=C(O)CC(C2CCCCC2)NC1=O` (centres unmarked) [compound 189], the IC50 was 0.01 to 10 µM.
`O=C(NC1CCCCC1)C1=C(O)C(Cc2ccccc2)NC1=O` (centres unmarked) [compound 23] was tested, and the IC50 was greater than 50 µM.
`O=C(Nc1ccc(Oc2ccccc2)cc1)C1=C(O)C(CCc2ccccc2)NC1=O` (centres unmarked) [compound 86] gave an IC50 of 0.01 to 10 µM.
`COc1cccc(NC(=O)C2=C(O)C(c3ccccc3)NC2=O)c1` (centres unmarked) [compound 12] was tested, and the IC50 was 0.01 to 10 µM.
For `N#Cc1ccc(-c2ccc(NC(=O)C3=C(O)C(Cc4ccccc4)NC3=O)cc2)cc1` (centres unmarked) [compound 66], the IC50 was 0.01 to 10 µM.
`O=C(Nc1ccc(-c2ccccc2)cc1)C1=C(O)C(c2ccccc2)NC1=O` (centres unmarked) [compound 16] was tested, and the IC50 was 0.01 to 10 µM.
In the case of `O=C(Nc1ccc(Cc2ccccc2)cc1)C1=C(O)C(Cc2ccccc2)NC1=O` (centres unmarked) [compound 10], the IC50 is reported as 0.01 to 10 µM.
